Reference: article doi:10.1101/2023.10.02.560523v1, “Quantitative target engagement of RIPK1 in human whole blood via the cellular thermal shift assay for potential pre-clinical and clinical applications” (biorxiv, 2023)

Biological target: T1, RIPK1 (receptor interacting serine/threonine-protein kinase 1) (Homo sapiens, UniProt Q13546)
T1 construct: endogenous untagged full-length protein in unprocessed human whole blood of healthy donors
T1 sequence (Q13546 1-671): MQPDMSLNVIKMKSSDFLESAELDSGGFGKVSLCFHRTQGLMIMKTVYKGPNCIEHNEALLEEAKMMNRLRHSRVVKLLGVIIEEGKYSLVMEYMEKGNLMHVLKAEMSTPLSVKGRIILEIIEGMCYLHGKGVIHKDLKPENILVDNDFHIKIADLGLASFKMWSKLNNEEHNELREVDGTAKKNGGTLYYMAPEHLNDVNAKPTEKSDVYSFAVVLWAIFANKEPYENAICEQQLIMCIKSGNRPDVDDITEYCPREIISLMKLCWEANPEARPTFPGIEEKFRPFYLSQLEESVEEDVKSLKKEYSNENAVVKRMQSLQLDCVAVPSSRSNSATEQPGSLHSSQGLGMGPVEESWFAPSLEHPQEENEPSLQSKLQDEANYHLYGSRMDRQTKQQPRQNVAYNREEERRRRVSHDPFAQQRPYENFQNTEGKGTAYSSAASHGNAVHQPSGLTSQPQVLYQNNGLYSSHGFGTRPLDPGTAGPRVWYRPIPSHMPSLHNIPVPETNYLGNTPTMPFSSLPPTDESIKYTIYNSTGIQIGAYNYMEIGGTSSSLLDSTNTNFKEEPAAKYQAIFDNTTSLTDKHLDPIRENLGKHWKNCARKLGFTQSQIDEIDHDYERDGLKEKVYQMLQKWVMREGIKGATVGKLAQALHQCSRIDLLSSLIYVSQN
Assay: MSD TEAR1 occupancy immunoassay, human whole blood
Format: cell-based
Conditions: 1 h at 37 °C with compound, no heating; N=1 donor; unreliable
Excerpt: MSD TEAR1 occupancy immunoassay, human whole blood on RIPK1 (receptor interacting serine/threonine-protein kinase 1)

## COc1ccc(-n2c(SCC#N)nc3sc4c(c3c2=O)CCCC4)cc1 [necrostatin 5]
  EC50: 340 nM
